Data set [1] concerns the target T1, GST-tagged PNCK recombinant protein (Homo sapiens, UniProt Q6P2M8).
T1 construct: GST; purchased Novus NBP1-99886
Description: ADP-Glo Kinase Assay, biochemical PNCK inhibitor screen. The conditions noted are these: compound 10uM, 25uM ATP, normalized to DMSO and staurosporine controls; for inhibition at 10 µM: read-out: Avg. Normalized % Inhibition, 10uM, ADP Kinase Glo. On the procedure:
ADP-Glo Kinase Assay (V6930, Promega) was used to screen the first round of compounds against PNCK. […] Autocamtide-II (GenScript RP10271) was used as the peptide substrate. This peptide was dissolved in water and prepared immediately prior to the assay. Calcium/Calmodulin 10X (Abcam ab189137) solution was used to create a custom kinase buffer: 40mM Tris,pH 7.5; 20mM MgCl2; 0.1mg/ml BSA; 50μM DTT and Ca2+/Calmodulin solution (0.03μg/μl, Calmodulin, 1mM Tris,pH 7.3, 0.5mM CaCl2). […] A standard curve was then done to determine the amount of protein needed to generate a signal in the linear range of the ATP curve. 100ng of PNCK and 2ng of substrate was used per well in the 96-well plate format of this assay. […] Plates were read using the Clariostar Plus. Data was normalized to a DMSO and staurosporine controls.
(§1) Data analysis of ADP Kinase Glo results were carried out per the manufacturer’s instructions. Results were represented as a percent decrease in activity. Data was normalized to staurosporine (positive control) as 100% decrease and DMSO (negative control) as a 0% decrease. Data for NanoBRET was analyzed by dividing the acceptor by the donor emission and […] to obtain raw millibret units (mBU). Background was subtracted using control emission averages. Data was normalized to positive and negative controls of staurosporine and DMSO. Concentration-response curves were plotted in GraphPad Prism 8 and IC50s were extrapolated using non-linear fit with concentrations transformed to logarithmic scale. Baseline was held constant and represented the average mBU of staurosporine controls while the top was constrained to represent the average mBU of DMSO controls. Error bars on dose-response curves represent standard deviations.
On the technique in general: ADP-Glo turns the ADP formed in a reaction into a luminescent signal.

The target of data set [2] is T2, PNCK Nano-luciferase fusion (Homo sapiens, UniProt Q6P2M8).
T2 construct: host or cells: HEK293
T2 sequence (Q6P2M8 whole entry, the tested form may be a part): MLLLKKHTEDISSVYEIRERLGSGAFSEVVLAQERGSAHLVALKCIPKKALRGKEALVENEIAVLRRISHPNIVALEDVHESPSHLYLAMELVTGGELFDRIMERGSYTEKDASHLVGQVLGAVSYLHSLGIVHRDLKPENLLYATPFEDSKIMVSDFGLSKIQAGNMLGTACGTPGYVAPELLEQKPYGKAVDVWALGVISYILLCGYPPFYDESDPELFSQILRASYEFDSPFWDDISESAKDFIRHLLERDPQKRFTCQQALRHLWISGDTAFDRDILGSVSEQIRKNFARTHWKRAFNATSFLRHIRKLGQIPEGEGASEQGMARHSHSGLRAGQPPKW
Description: NanoBRET Target Engagement Intracellular Kinase Assay, cell-based PNCK binding screen and dose response in HEK293 cells. The conditions noted are these: for inhibition at 1 µM: compound 1uM, read-out: Avg. Normalized % Inhibition, 1uM, Nanobret; for inhibition at 1 µM / inhibition at 10 µM / IC50: HEK293; for inhibition at 1 µM / inhibition at 10 µM: K10 tracer 1uM, normalized to staurosporine and DMSO; for inhibition at 10 µM: compound 10uM, read-out: Avg. Normalized % Inhibition, 10uM, Nanobret; for cell permeability: stated on testing in NanoBRET assay; for IC50: 8-point concentration-response; for NanoBRET binding, result in words: cell-based screen / comparison with parent hit. The procedure:
The NanoBRET Target Engagement Intracellular Kinase Assay (Promega N2520) is a cell-based binding screen which reads loss of BRET signal as a result of target binding. A PNCK Nano-luciferase fusion vector plasmid was generated custom by Promega. The K-10 tracer was used for the assay, as determined by Promega. The plasmid was maxiprepped by Genewiz for use in all future assays. HEK293 cells were seeded in a T175 flask in DMEM with 10% FBS. The following day, cells were counted to 10,000, resuspended in assay media (Optimem with no phenol red, 1% FBS). Plasmid and transfection reagent (Fugene HD, Promega E2311) were added to the mixture and cells were seeded in a white 96-well plate. After 20–24 hours, media was changed, and the assay proceeded according to protocol. K10 tracer was added at the recommended concentration of 1uM while compounds were initially screened at both 10uM and 1uM. Cells incubated with compound at 37 degrees Celsius for a maximum of 2 hours before the plate was read using Clariostar Plus. Data was normalized to Staurosporine and DMSO controls. For compounds selected for further analysis, dose response curves were generated using the same testing protocol but at 8 different concentrations: 24uM, 12uM, 6uM, 3uM, 1.5uM, .75uM 0.375uM and 0.1875uM. UM195 was tested with concentrations from 12uM to 0.09375. Similarly, compounds from the analog by catalog analysis were tested at concentrations from 24uM to 0.1875uM.
as §1

“And” between values parts separate entries of the source, which are not always exact repeats. Equal entries are not always repeated.

Broadly, the inhibition is the share of the control response that was lost under treatment. As for `COc1ccc(CNC(=O)c2cc(C3CC3)[nH]n2)cc1C(=O)O` [UM_019], in data set [1], the “Avg. Normalized % Inhibition, 10uM, ADP Kinase Glo” value is reported as “Negligible”. Moreover, in data set [2], the inhibition at 1 µM is 0% and the inhibition at 10 µM is 0%.

`Cc1c(C(=O)O)sc2ncnc(NCc3nncn3CCc3ccccc3)c12` [UM_033]: the inhibition at 10 µM worked out at 50.8% in data set [1] and 13.5% in data set [2]. For the same molecule, the inhibition at 1 µM in data set [2] came out at 8.63%.

Consider `O=C(O)Cc1cc(C2CCN(C(=O)c3ccc(C(F)(F)F)nc3O)CC2)[nH]n1` [UM_031], for which the inhibition at 10 µM in data set [1] came to 7.65%. In data set [2], the inhibition at 1 µM was 13.3% and the inhibition at 10 µM came to 14.6%.

For the molecule `O=C(O)Cc1ccc(NS(=O)(=O)c2cccc(Cl)c2Cl)cc1` [UM_024], the inhibition at 10 µM in data set [1] was 48.6%; in data set [2] it was 0%. Besides, the inhibition at 1 µM in data set [2] came to 0%.

As to `COc1ccc(Cl)c(S(=O)(=O)Nc2ccc(OCC(=O)O)cc2)c1` [UM_038], in data set [1], the “Avg. Normalized % Inhibition, 10uM, ADP Kinase Glo” value is 68.8% and the inhibition at 10 µM is over 50%. In data set [2], the inhibition at 1 µM amounted to 0% and the inhibition at 10 µM was found to be 18.9%.

`CC1CCc2c(sc(NC(=O)c3ccc([N+](=O)[O-])s3)c2C(N)=O)C1` (stereo not drawn) [UM_250]: in data set [2], the inhibition at 1 µM worked out at 0% and the inhibition at 10 µM amounted to 0%.

For the molecule `Cc1cc(NC(=O)[C@@H]2CCO[C@H]2c2nccn2C)nnc1C` [UM_221], in data set [2], the inhibition at 1 µM worked out at 0% and the inhibition at 10 µM came to 14.7%.

Regarding `O=C(O)c1cccc(NS(=O)(=O)/C=C/c2ccc(Cl)cc2)c1` [UM_235], in data set [2], the inhibition at 1 µM came to 4.02% and the inhibition at 10 µM turned out to be 10.3%.

For `O=C1CCCCCN1CCc1nc(-c2cccnn2)no1` [UM_242], in data set [2], the cell permeability entry is given as “not cell permeable”.

Broadly, the IC50 is the point on the concentration scale where inhibition reaches its midpoint. Read a low IC50 as inhibition by little substance. In the case of `N#Cc1cnc(Sc2nnc(-c3cccc4ccccc34)o2)cn1` [UM_195, 5-[5-(naphthalen-1-yl)-1,3,4-oxadiazol-2-yl]sulfanylpyrazine-2-carbonitrile], the IC50 in data set [2] was 3.36 µM. The “Dose-Response Curve Data (NanoBRET signal, replicates)” value (from here on “Dose-Response Curve Data”) is 5.32 and 5.59 and 5.20 in data set [2] (Concentration 1.20E-05 M); 7.80 and 7.94 and 7.90 in data set [2] (Concentration 1.50E-06 M); 9.08 and 9.29 and 8.92 in data set [2] (Concentration 1.88E-07 M); 7.45 and 6.56 and 7.25 in data set [2] (Concentration 3.00E-06 M); 9.32 and 8.97 and 9.18 in data set [2] (Concentration 3.75E-07 M); 5.79 and 6.12 (2×) in data set [2] (Concentration 6.00E-06 M). For the same molecule, the “Dose-Response Curve Data” value in data set [2] (Concentration 7.50E-07 M) was 8.84 and 8.55 and 8.27; in data set [2] (Concentration 9.38E-08 M) it was 9.33 and 9.39 and 8.87. For the same molecule, the inhibition at 1 µM in data set [2] amounted to 22.1%. For the same molecule, in data set [2], the inhibition at 10 µM was found to be 100%.

On to `O=C(O)CCc1nnc(SCc2c(Cl)cccc2Cl)[nH]c1=O` [UM_193], for which, in data set [2], the inhibition at 1 µM was 0%, the inhibition at 10 µM came out at 0% and the cell permeability entry is “not cell permeable”.

For `CC1CCc2c(sc(NC(=O)CSc3ncnc4[nH]cnc34)c2C(N)=O)C1` (stereo not drawn) [UM_251], the IC50 in data set [2] is 2.53 µM. For the same molecule, the “Dose-Response Curve Data” value in data set [2] (Concentration 1.20E-05 M) was 4.13 and 4.23 and 4.54 and 4.39; in data set [2] (Concentration 1.50E-06 M), 6.59 and 7.07 and 6.74 and 7.03; in data set [2] (Concentration 1.88E-07 M), 7.33 and 7.01 and 6.90 and 7.62; in data set [2] (Concentration 2.40E-05 M), 4.23 and 3.92 and 4.54 and 4.39; in data set [2] (Concentration 3.00E-06 M) it was 6.43 and 6.10 and 6.50 and 6.24; in data set [2] (Concentration 3.75E-07 M), 7.22 and 7.21 and 7.00 and 7.10. The “Dose-Response Curve Data” value in data set [2] (Concentration 6.00E-06 M) is 4.64 and 5.22 and 4.89 and 5.32; in data set [2] (Concentration 7.50E-07 M) it was 7.22 and 6.99 and 7.34 and 6.94. Besides, the “NanoBRET binding, result in words” value in data set [2] is listed as “improving from the IC50 of UM_228 by one order of magnitude”. The inhibition at 1 µM in data set [2] stood at 63.2%. Further, the inhibition at 10 µM in data set [2] was found to be 91.8%.

Turning to `CNC(=O)[C@@H]1C[C@@H](N)CN1C(=O)CCc1nc(-c2cccnc2)no1` [UM_244], the cell permeability entry in data set [2] was “not cell permeable”.

Consider `O=C1CNC(=O)N1CCCOc1ccc2c3c(c(=O)oc2c1)CCCCC3` [UM_258], for which, in data set [2], the inhibition at 1 µM is 27.9% and the inhibition at 10 µM was found to be 74%.

As to `Clc1nc(-c2cccnc2)nc2sc3c(c12)CCCC3` [UM_209], in data set [2], the inhibition at 1 µM was 5.53% and the inhibition at 10 µM was 55.3%.

For `O=c1[nH]c(CSc2ccc3ccccc3n2)nc2ccc(Cl)cc12` [UM_210, 6-chloro-2-[(quinolin-2-ylsulfanyl)methyl]-3,4-dihydroquinazolin-4-one], in data set [2], the IC50 was 8.09 µM. Further, the “Dose-Response Curve Data” value was 7.35 and 5.53 and 7.51 and 6.90 in data set [2] (Concentration 1.20E-05 M); 8.14 and 8.22 and 8.79 and 8.09 in data set [2] (Concentration 1.50E-06 M); 8.61 and 9.43 and 9.50 and 8.74 in data set [2] (Concentration 1.88E-07 M); 4.79 and 5.28 and 5.02 and 4.59 in data set [2] (Concentration 2.40E-05 M); 7.91 and 7.57 and 6.47 and 7.46 in data set [2] (Concentration 3.00E-06 M); 9.79 and 9.21 and 8.99 and 8.71 in data set [2] (Concentration 3.75E-07 M). For the same molecule, the “Dose-Response Curve Data” value in data set [2] (Concentration 6.00E-06 M) was 7.06 and 7.86 and 6.98 and 6.97; in data set [2] (Concentration 7.50E-07 M), 8.34 and 8.97 and 8.05 and 9.09. Moreover, the inhibition at 1 µM in data set [2] worked out at 41.2%. The inhibition at 10 µM in data set [2] was determined as 98.5%.

As to `COc1ccccc1N(CCC(N)=O)C(=O)COc1ccc2c(c1)CCCC2=O` [UM_249], in data set [2], the inhibition at 1 µM is 22.8% and the inhibition at 10 µM is 41.8%.

For the molecule `C[C@@H]1CCc2c(sc(NC(=O)c3ccc(Cl)s3)c2C(N)=O)C1` [UM_228, (6R)-2-(5-chlorothiophene-2-amido)-6-methyl-4,5,6,7-tetrahydro-1-benzothiophene-3-carboxamide], the IC50 in data set [2] worked out at 8.32 µM. The “Dose-Response Curve Data” value is 6.59 and 6.36 and 6.71 in data set [2] (Concentration 1.20E-05 M); 8.32 and 8.64 and 8.50 in data set [2] (Concentration 1.50E-06 M); 8.44 and 8.73 and 8.35 in data set [2] (Concentration 1.88E-07 M); 5.75 and 5.50 and 5.61 in data set [2] (Concentration 2.40E-05 M); 8.33 and 8.45 and 7.70 in data set [2] (Concentration 3.00E-06 M); 8.86 and 8.18 and 8.92 in data set [2] (Concentration 3.75E-07 M). Also, the “Dose-Response Curve Data” value in data set [2] (Concentration 6.00E-06 M) is 7.13 and 7.60 and 7.05; in data set [2] (Concentration 7.50E-07 M) it was 8.73 and 8.94 and 8.43. In data set [2], the inhibition at 1 µM came to 35.2%. Moreover, in data set [2], the inhibition at 10 µM was 97.6%.

On to `O=c1[nH]c(CSc2ccccc2)nc2ccc(Cl)cc12` [UM_279], for which, in data set [2], the “NanoBRET binding, result in words” value is “did not demonstrate significantly improved binding”; the inhibition at 1 µM worked out at 5.1%; the inhibition at 10 µM was 23.4%.

As to `O=C(c1c(F)cc(F)cc1F)C1CCN(C(=O)c2ccnnc2)CC1` [UM_212], in data set [2], the inhibition at 1 µM came to 0% and the inhibition at 10 µM was 49.9%.

For the molecule `Cn1cnnc1SCc1nc(N)c2c3c(sc2n1)CCCC3` [UM_214], in data set [2], the inhibition at 1 µM was 27.2% and the inhibition at 10 µM was found to be 62.3%.

With `c1ccc2c(-c3nnc(Sc4cnccn4)o3)cccc2c1` [UM_265], in data set [2], the inhibition at 1 µM is 21.5% and the inhibition at 10 µM came to 63.5%.

These data come from paper PMC10249896, “AI-Assisted chemical probe discovery for the understudied Calcium-Calmodulin Dependent Kinase, PNCK” (PLOS Computational Biology, 2023).
